Measurements from US20260285850A1, “SUBSTITUTED OXAZOLIDINONES AND IMIDAZOLINONES AS HERBICIDES” (FMC CORPORATION, priority 2023, published 2026).

Columns and labels:
Type in all cases: in vivo
[1] = tested on: ragweed (common ragweed, Ambrosia artemisiifolia); assay: Test A postemergence application, visual injury rating 0-100
In short: (§1)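 Grow plants in loam soil blended with sand. Apply formulated compound (non-phytotoxic solvent, surfactant) as a directed soil spray before emergence, or to plants at the one- to two-leaf stage after emergence. Hold in greenhouse 10 days, then rate injury visually versus untreated controls on a 0-100 scale.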

[2] = tested on: soybean (Glycine max); assay: as above
In short: as §1

[3] = tested on: wheat (Triticum aestivum); assay: as above
In short: as §1

[4] = tested on: oat, wild (wild oat, Avena fatua); assay: as above
In short: as §1

[5] = tested on: green foxtail (Setaria viridis); assay: as above
In short: as §1

[6] = tested on: galium (catchweed bedstraw, Galium aparine); assay: as above
In short: as §1

[7] = tested on: ryegrass, Italian (italian ryegrass, Lolium multiflorum); assay: as above
In short: as §1

[8] = tested on: barnyardgrass (Echinochloa crus-galli); assay: as above
In short: as §1

[9] = tested on: blackgrass (Alopecurus myosuroides); assay: as above
In short: as §1

[10] = tested on: horseweed (Erigeron canadensis); assay: as above
In short: as §1

[11] = tested on: palmer (palmer amaranth, palmer pigweed, Amaranthus palmeri); assay: as above
In short: as §1

[12] = tested on: kochia (Bassia scoparia); assay: as above
In short: as §1

[13] = tested on: corn (Zea mays); assay: as above
In short: as §1

[14] = tested on: barnyardgrass (Echinochloa crusgalli); assay: Test B flooded paddy test, visual plant response rating 0-100; settings: 250 g ai/ha, Flood, applied to paddy water, evaluated after 13 days
In short: (§2)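 Plants were grown to the 2-leaf stage, then pots were flooded to 3 cm above the soil and test compounds were applied directly into the paddy water. Water depth was held there throughout; after 13 days in a greenhouse, injury was scored visually against untreated controls.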

[15] = tested on: ducksalad (Heteranthera limosa); assay: as above; settings: 250 g ai/ha, Flood, applied to paddy water, evaluated after 13 days
In short: as §2

[16] = tested on: rice (Oryza sativa); assay: as above; settings: 250 g ai/ha, Flood, applied to paddy water, evaluated after 13 days
In short: as §2

[17] = tested on: sedge, umbrella (small-flower umbrella sedge, Cyperus difformis); assay: as above; settings: 250 g ai/ha, Flood, applied to paddy water, evaluated after 13 days
In short: as §2

[18] = tested on: ragweed (common ragweed, Ambrosia artemisiifolia); assay: Test A preemergence soil spray, visual injury rating 0-100; settings: 10 days
In short: as §1

[19] = tested on: soybean (Glycine max); assay: as above; settings: 10 days
In short: as §1

[20] = tested on: wheat (Triticum aestivum); assay: as above; settings: 10 days
In short: as §1

[21] = tested on: oat, wild (wild oat, Avena fatua); assay: as above; settings: 10 days
In short: as §1

[22] = tested on: green foxtail (Setaria viridis); assay: as above; settings: 10 days
In short: as §1

[23] = tested on: ryegrass, Italian (italian ryegrass, Lolium multiflorum); assay: as above; settings: 10 days
In short: as §1

[24] = tested on: barnyardgrass (Echinochloa crus-galli); assay: as above; settings: 10 days
In short: as §1

[25] = tested on: blackgrass (Alopecurus myosuroides); assay: as above; settings: 10 days
In short: as §1

[26] = tested on: palmer (palmer amaranth, palmer pigweed, Amaranthus palmeri); assay: as above; settings: 10 days
In short: as §1

[27] = tested on: kochia (Bassia scoparia); assay: as above; settings: 10 days
In short: as §1

[28] = tested on: corn (Zea mays); assay: as above; settings: 10 days
In short: as §1

[29] = 62 g ai/ha, postemergence, 10 days, 0 = no effect, 100 = complete control
[30] = Postemergence, 16 g ai/ha, greenhouse 10 days, 0 no effect, 100 complete control
[31] = 62 g ai/ha, 0 = no effect, 100 = complete control

CC1(C(=O)NC2CC=C(C(=O)NS(=O)(=O)c3ccccc3)C2)CN(c2cc(F)cc(F)c2)C(=O)O1 (racemic) [Compound 104]
Ragweed plant response rating (0-100) [1, 29]: 60 | Ragweed plant response rating (0 to 100 scale) [1, 30]: 40 | Soybean plant response rating (0-100) [2, 29]: 60 | Soybean plant response rating (0 to 100 scale) [2, 30]: 20 | Wheat plant response rating (0-100) [3, 29]: 90 | Wheat plant response rating (0 to 100 scale) [3, 30]: 30 | Oat, Wild plant response rating (0-100) [4, 29]: 30 | Oat, Wild plant response rating (0 to 100 scale) [4, 30]: 0 | Foxtail, Green plant response rating (0-100) [5, 29]: 90 | Foxtail, Green plant response rating (0 to 100 scale) [5, 30]: 40 | Galium plant response rating (0-100) [6, 29]: 70 | Galium plant response rating (0 to 100 scale) [6, 30]: 30 | Ryegrass, Italian plant response rating (0-100) [7, 29]: 70 | Ryegrass, Italian plant response rating (0 to 100 scale) [7, 30]: 50 | Barnyardgrass plant response rating (0-100) [8, 29]: 100 | Barnyardgrass plant response rating (0 to 100 scale) [8, 30]: 50 | Blackgrass plant response rating (0-100) [9, 29]: 70 | Blackgrass plant response rating (0 to 100 scale) [9, 30]: 0 | Horseweed plant response rating (0-100) [10, 29]: 30 | Horseweed plant response rating (0 to 100 scale) [10, 30]: 0 | Pigweed, Palmer plant response rating (0-100) [11, 29]: 90 | Pigweed, Palmer plant response rating (0 to 100 scale) [11, 30]: 80 | Kochia plant response rating (0-100) [12, 29]: 90 | Kochia plant response rating (0 to 100 scale) [12, 30]: 30 | Corn plant response rating (0-100) [13, 29]: 90 | Corn plant response rating (0 to 100 scale) [13, 30]: 0 | Plant response rating, Barnyardgrass (0 to 100 scale, 0 is no effect and 100 is complete control) [14]: 0 | Plant response rating, Ducksalad (0 to 100 scale, 0 is no effect and 100 is complete control) [15]: 0 | Plant response rating, Rice (0 to 100 scale, 0 is no effect and 100 is complete control) [16]: 0 | Plant response rating, Sedge, Umbrella (0 to 100 scale, 0 is no effect and 100 is complete control) [17]: 0 | Ragweed plant response rating ([18]; 16 g ai/ha, 0 to 100 scale): 20 | Ragweed plant response rating (0-100) [18, 31]: 20 | Soybean plant response rating ([19]; 16 g ai/ha, 0 to 100 scale): 0 | Soybean plant response rating (0-100) [19, 31]: 0 | Wheat plant response rating ([20]; 16 g ai/ha, 0 to 100 scale): 0 | Wheat plant response rating (0-100) [20, 31]: 20 | Oat, Wild plant response rating ([21]; 16 g ai/ha, 0 to 100 scale): 0 | Oat, Wild plant response rating (0-100) [21, 31]: 0 | Foxtail, Green plant response rating ([22]; 16 g ai/ha, 0 to 100 scale): 0 | Foxtail, Green plant response rating (0-100) [22, 31]: 30 | Ryegrass, Italian plant response rating ([23]; 16 g ai/ha, 0 to 100 scale): 0 | Ryegrass, Italian plant response rating (0-100) [23, 31]: 20 | Barnyardgrass plant response rating ([24]; 16 g ai/ha, 0 to 100 scale): 0 | Barnyardgrass plant response rating (0-100) [24, 31]: 20 | Blackgrass plant response rating ([25]; 16 g ai/ha, 0 to 100 scale): 0 | Blackgrass plant response rating (0-100) [25, 31]: 0 | Pigweed, Palmer plant response rating ([26]; 16 g ai/ha, 0 to 100 scale): 0 | Pigweed, Palmer plant response rating (0-100) [26, 31]: 30 | Kochia plant response rating ([27]; 16 g ai/ha, 0 to 100 scale): 0 | Kochia plant response rating (0-100) [27, 31]: 50 | Corn plant response rating ([28]; 16 g ai/ha, 0 to 100 scale): 0 | Corn plant response rating (0-100) [28, 31]: 0
